Measured values as given in US20140315797A1, “Novel N-Terminally Modified Insulin Derivatives” (priority 2010, published 2014).
Read-outs that look alike come from different tables or passages of the source. Starred links: 1 amine or outer side, 2 acyl side, 3 side chain; linkers in the order of their positions; H or OH if unused. Positions of bridges follow the written chain, without caps; N, C: chain ends. Groups on a side chain read outwards from the residue. Chains are numbered I, II in the order given. No end group written: not given here. *: point of attachment. Phe(Nα-CONH2) = NC(=O)N[C@@H](Cc1ccccc1)C(=O)*; C20 diacid = O=C(O)CCCCCCCCCCCCCCCCCCC(=O)*; C18 diacid = O=C(O)CCCCCCCCCCCCCCCCC(=O)*; C16 diacid = O=C(O)CCCCCCCCCCCCCCC(=O)*; NMe2Phe = CN(C)[C@@H](Cc1ccccc1)C(=O)*; γGlu = O=C(O)[C@H](CCC(=O)[*:2])N[*:1]; X1 = CCN(CC)[C@@H](Cc1ccccc1)C(=O)*; Hydantoyl = NC(=O)NCC(=O)*; AEEA = NCCOCCOCC(=O)O; Me2Gly = CN(C)CC(=O)*; X2 = CCN(CC)CC(=O)*

Legend:
[1] = Chemical stability of insulin analogues formulated in lipid formulations (UPLC purity, SEC HMWP); assay type: physicochemical; conditions: lipid formulation
Protocol: Chemical stability of insulin analogues formulated in lipid formulations was assessed according to the protocol described here.
Composition of the formulation: […]
Insulin to be tested (75 μM)
The insulin to be tested (lyophilised from pH 7.5) is dissolved in propylenglycol in the dark for 16 hours. Diglycerol caprylate is added ad the mixture is stirred. Tween 20 is added and the mixture is stirred for 5 minutes. The mixture is gently agitated until it is homogeneous.
Extraction-mix: 1-butanol+0.1% (w/w) Tween80, 0.1M Na2HPO4/NaH2PO4 pH 7.0 • 1. The formulations are allowed to reach room temperature. • 2. To each Eppendorf tube 20 μl of the formulations are added. • 3. Add 490 μl 1-butanol followed by addition of 990 μl of the phosphate buffer. Vortex and incubate at RT for 30 min. • 4. Vortex again and centrifuge at RT at 14000 rpm for 20 min. Analyse the bottom aqueous phase for purity and HMWP formation.
Alternatively another extraction method can be used: • 1. The formulations are allowed to reach room temperature. • 2. To each Eppendorf tube 50 μl of the formulations are added. • 3. Add 950 μl of extraction buffer. Vortex well. Immediately after, load 800 μl (2×400 μl) for purification on the spin column. See spin protocol below. Ion Exchange on Q Spin Columns from Sartorius
(In the following all spin steps are for 5 min at 2000×g.) • 1. Apply 400 μl equilibration buffer to each spin column, and spin. Discard the flow-through. • 2. Apply 2×400 μl of each extracted sample. Spin the column between each application. Discard the flow-through. • 3. Apply 400 μl washing buffer to wash each spin column, and spin. Discard the wash. • 4. Apply 400 μl elution buffer to each spin column, and spin. Analyse the elution for purity and HMWP formation
Column: Waters BEH Shield RP18 UPLC column (2.1×100 mm, 1.7 μm)
Buffer A: 0.09M di-ammonium hydrogen phosphate pH 3.0, 10% (v/v) acetonitrile
Buffer B: 90% acetonitrile.
Column: Waters Insulin HMWP SEC column
Buffer: 500 mM NaCl, 10 mM NaH2PO4, 5 mM H3PO4, 50% (v/v) 2-propanol

[2] = molecular target: T1, human insulin receptor (IR-A) (Homo sapiens, UniProt P06213); conditions: relative to affinity of human insulin; […] HSA in binding buffer
Protocol: (§1) The affinity of the acylated insulin analogues of this invention for the human insulin receptor is determined by a SPA assay (Scintillation Proximity Assay) microtiterplate antibody capture assay. SPA-PVT antibody-binding beads, anti-mouse reagent (Amersham Biosciences, Cat No. PRNQ0017) are mixed with 25 ml of binding buffer (100 mM HEPES pH 7.8; 100 mM sodium chloride, 10 mM MgSO4, 0.025% Tween-20). Reagent mix for a single Packard Optiplate (Packard No. 6005190) is composed of 2.4 μl of a 1:5000 diluted purified recombinant human insulin receptor (either with or without exon 11), an amount of a stock solution of A14Tyr[^125I]-human insulin corresponding to 5000 cpm per 100 μl of reagent mix, 12 μl of a 1:1000 dilution of F12 antibody, 3 ml of SPA-beads and binding buffer to a total of 12 ml. A total of 100 μl reagent mix is then added to each well in the Packard Optiplate and a dilution series of the insulin derivative is made in the Optiplate from appropriate samples. The samples are then incubated for 16 hours while gently shaken. The phases are the then separated by centrifugation for 1 min and the plates counted in a Topcounter. The binding data were fitted using the nonlinear regression algorithm in the GraphPad Prism 2.01 (GraphPad Software, San Diego, Calif.) and affinities are expressed relative (in percentage (%)) to the affinity of human insulin.
A related assay is also used wherein the binding buffer also contains 1.5% HSA in order to mimic physiological conditions

[3] = molecular target: T1, human insulin receptor (IR-A); experiment: Insulin receptor affinity, SPA antibody capture assay, 0% HSA; assay type: binding; conditions: relative to affinity of human insulin
Protocol: as §1

duodenum lumen enzymes [4] = conditions: pH 7.4
Protocol: (§2) Degradation of insulin analogs using duodenum lumen enzymes (prepared by filtration of duodenum lumen content) from SPD rats. The assay is performed by a robot in a 96 well plate (2 ml) with 16 wells available for insulin analogs and standards. Insulin analogs ˜15 μM are incubated with duodenum enzymes in 100 mM Hepes, pH=7.4 at 37° C., samples are taken after 1, 15, 30, 60, 120 and 240 min and reaction quenched by addition of TFA. Intact insulin analogs at each point are determined by RP-HPLC. Degradation half time is determined by exponential fitting of the data and normalized to half time determined for the reference insulins, A14E, B25H, desB30 human insulin or human insulin in each assay. The amount of enzymes added for the degradation is such that the half time for degradation of the reference insulin is between 60 min and 180 min.

duodenum lumen enzymes [5] = experiment: Degradation of insulin analogs using duodenum lumen enzymes; conditions: degradation half time divided by that of reference insulin; rat duodenum enzymes, pH 7.4, 37° C.
Protocol: as §2

primary rat adipocytes = experiment: Lipogenesis in rat adipocytes; assay type: cell-based; conditions: relative potency vs human insulin, unit %
Protocol: As a measure of in vitro potency of the insulins of the invention, lipogenesis can be used.
Primary rat adipocytes are isolated from the epididymale fat pads and incubated with 3H-glucose in buffer containing e.g. 0.1% fat free HSA and either standard (human insulin, HI) or insulin of the invention. The labelled glucose is converted into extractable lipids in a dose dependent way, resulting in full dose response curves.

[6] = Hydrophobicity by isocratic reverse phase HPLC (k'rel); assay type: physicochemical; conditions: human insulin = 1, RP-HPLC pH 7.3
Protocol: The elution time of the insulin derivative is compared to that of human insulin (herein designated HI) or another derivative with a known hydrophibicity under the same conditions. The hydrophobicity, k′rel, is calculated as: k′relderiv=((tderiv−t0)/(tref−t0))*k′relref. Using HI as reference: k′relref=k′relHI=1. The void time of the HPLC system, t0, is determined by injecting 5 μl of 0.1 mM NaNO3. Running conditions:
Column: Lichrosorb RP-C18, 5 μm, 4×250 mm
Buffer A: 0.1 M natrium phosphate pH 7.3, 10 vol % CH3CN
After running an initial gradient, the isocratic level for running the derivative and reference (for example HI) is chosen, and the elution times of the derivative and reference under isocratic conditions are used in the above equation to calculate k′relderiv.

T1 sequence (P06213 28-746 isoform P06213-2 limits assumed): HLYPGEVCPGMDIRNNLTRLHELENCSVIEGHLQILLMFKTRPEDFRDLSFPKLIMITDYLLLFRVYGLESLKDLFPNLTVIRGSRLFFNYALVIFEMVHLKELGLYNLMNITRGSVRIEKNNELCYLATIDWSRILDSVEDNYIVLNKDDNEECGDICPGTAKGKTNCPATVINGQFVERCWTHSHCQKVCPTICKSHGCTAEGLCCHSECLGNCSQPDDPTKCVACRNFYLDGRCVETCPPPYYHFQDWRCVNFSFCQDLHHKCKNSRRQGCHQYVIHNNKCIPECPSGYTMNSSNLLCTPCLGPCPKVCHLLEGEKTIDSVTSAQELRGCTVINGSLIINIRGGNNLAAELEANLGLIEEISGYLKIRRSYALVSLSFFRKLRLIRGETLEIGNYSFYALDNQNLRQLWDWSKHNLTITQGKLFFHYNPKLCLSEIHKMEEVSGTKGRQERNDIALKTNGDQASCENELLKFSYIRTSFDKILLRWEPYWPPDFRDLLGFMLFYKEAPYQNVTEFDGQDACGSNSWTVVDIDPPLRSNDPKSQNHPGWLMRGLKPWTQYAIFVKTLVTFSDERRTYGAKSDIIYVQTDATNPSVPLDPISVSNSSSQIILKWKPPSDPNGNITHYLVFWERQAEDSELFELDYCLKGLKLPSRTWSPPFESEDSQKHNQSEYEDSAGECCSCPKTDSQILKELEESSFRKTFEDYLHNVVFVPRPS
T1 sequence (P06213 763-1382 partner limits assumed): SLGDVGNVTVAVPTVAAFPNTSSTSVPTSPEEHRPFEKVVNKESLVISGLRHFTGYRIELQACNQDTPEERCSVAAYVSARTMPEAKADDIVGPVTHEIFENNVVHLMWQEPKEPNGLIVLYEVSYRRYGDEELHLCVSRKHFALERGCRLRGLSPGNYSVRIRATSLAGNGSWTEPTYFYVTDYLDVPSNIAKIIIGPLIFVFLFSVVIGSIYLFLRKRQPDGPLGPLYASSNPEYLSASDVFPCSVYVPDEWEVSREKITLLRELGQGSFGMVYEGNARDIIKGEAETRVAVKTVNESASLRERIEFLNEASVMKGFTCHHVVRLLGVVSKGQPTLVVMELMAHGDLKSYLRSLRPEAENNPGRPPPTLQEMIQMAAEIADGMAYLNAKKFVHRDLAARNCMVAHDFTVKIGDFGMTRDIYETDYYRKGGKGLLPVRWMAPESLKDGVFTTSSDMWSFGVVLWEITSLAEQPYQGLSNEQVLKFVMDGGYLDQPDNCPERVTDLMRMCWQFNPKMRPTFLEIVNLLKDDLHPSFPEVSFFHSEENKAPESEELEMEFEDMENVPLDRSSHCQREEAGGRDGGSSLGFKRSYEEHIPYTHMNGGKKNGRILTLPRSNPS

| Substance | HMWP formed (%) 2 weeks ([1]; 2 weeks, 25° C.) [%] | Impurities formed (%) 2 weeks ([1]; 2 weeks, 25° C.) [%] | HMWP formed (%) 4 weeks ([1]; 25° C.) [%] | Impurities formed (%) 4 weeks ([1]; 25° C.) [%] | Relative IR-A affinity (@ […] HSA) (%)e [2] [%] | Relative IR-A affinity (@ 0% HSA) (%) [3] [%] | Duodenum degradation. Relative stability vs. A14E, B25H, desB30 human insulin (duodenum lumen enzymes [4]) | Duodenum degradation. Relative stability vs. A14E, B25H, desB30 human insulin (duodenum lumen enzymes [5]) | Lipogenesis in rat adipocytres (@ 0.1% HSA) rel. to human insulin (primary rat adipocytes) [%] | Hydrophobicity rel. to human insulin [6] | HMWP formed (%) 4 weeks ([1]; 30° C.) [%] | Impurities formed (%) 4 weeks ([1]; 30° C.) [%] |
| --- | --- | --- | --- | --- | --- | --- | --- | --- | --- | --- | --- | --- |
| I: X1-VNQHLCGSHLVEALYLVCGERGFHYTPK([AEEA-AEEA-γGlu-C18 diacid]) / II: X2-IVEQCCTSICSLEQLENYCN (disulfide I:6-II:6, I:18-II:19, II:5-II:10) [Example 2, A1(N^α,N^α-Diethyl), A14E, B1(N^α, N^α-diethyl), B25H, B29K(N^εOctadecanedioyl-gGlu-2xOEG), desB30 human insulin] | 0.0 | 1.7 | 0.1 | 3.2 | 0.05 | 1.7 | 0.8 | – | – | – | – | – |
| I: {Phe(Nα-CONH2)}-VNQHLCGSHLVEALHLVCGERGFFYPK([AEEA-AEEA-γGlu-C20 diacid]) / II: Hydantoyl-IVEQCCTSICSLEQLENYCN (disulfide I:6-II:6, I:18-II:19, II:5-II:10) [Example 22] | – | – | – | – | – | – | – | 7.7 | – | – | – | – |
| A1(N,N-Dimethyl), A14E, B1(N,N-dimethyl), desB27, B29K(N^εoctadecanedioyl-gGlu-2xOEG), desB30 human insulin [Example 6] | – | – | – | – | 0.98 | 17.0 | – | – | 0.60 | – | – | – |
| I: {Phe(Nα-CONH2)}-VNQHLCGSHLVEALYLVCGERGFHYTPK([AEEA-AEEA-γGlu-C18 diacid]) / II: Hydantoyl-IVEQCCTSICSLEQLENYCN (disulfide I:6-II:6, I:18-II:19, II:5-II:10) [Example 12, A1(N^αCarbamoyl), A14E, B1(N^αCarbamoyl), B25H, B29K(N^εoctadecanedioyl-gGlu-2xOEG), desB30 human insulin] | – | – | – | – | 0.06 | 0.3 | – | 1.5 | 0.02 | 0.15 | 0.2 | 4.4 |
| I: NMe2Phe-VNQHLCGSHLVEALYLVCGERGFHYTPK([AEEA-AEEA-γGlu-C18 diacid]) / II: Me2Gly-IVEQCCTSICSLEQLENYCN (disulfide I:6-II:6, I:18-II:19, II:5-II:10) [Example 1, A1(N^α, N^α-Dimethyl), A14E, B1(N^α, N^α-dimethyl), B25H, B29K(N^εoctadecanedioyl-gGlu-2xOEG), desB30 human insulin] | – | – | – | – | 0.09 | 1.5 | – | 1.2 | 0.10 | 0.38 | 0.4 | 9.8 |
| A1G(N^α, N^α-Dimethyl), A14E, B1F(N(alpha), N(N^α, N^α-dimethyl), B25H, desB27, B29K(N^εhexadecanedioyl-gGlu-2xOEG), desB30 human insulin [Example 9] | – | – | – | – | 0.33 | 2.5 | – | 9.2 | 1.34 | 0.10 | – | – |
| I: {Phe(Nα-CONH2)}-VNQHLCGSHLVEALHLVCGERGFHYTPK([AEEA-AEEA-γGlu-C20 diacid]) / II: Hydantoyl-IVEQCCTSICSLEQLENYCN (disulfide I:6-II:6, I:18-II:19, II:5-II:10) [Example 16, A1(N^α-Carbamoyl), A14E, B1(N^α-Carbamoyl), B16H, B25H, B29K(N^εeicosanedioyl-gGlu-2xOEG), desB30 human insulin] | – | – | – | – | 0.01 | 0.1 | – | 0.4 | – | – | – | – |
| I: NMe2Phe-VNQHLCGSHLVEALHLVCGERGFHYTPK([γGlu-C16 diacid]) / II: Me2Gly-IVEQCCTSICSLEQLENYCN (disulfide I:6-II:6, I:18-II:19, II:5-II:10) [Example 3, A1(N^α,N^α-Dimethyl), A14E, B1(N^α, N^α-dimethyl), B16H, B25H, B29K(N^εhexadecanedioyl-gGlu), desB30 human insulin] | – | – | – | – | 0.06 | 0.6 | – | 3.1 | – | – | – | – |
| I: {Phe(Nα-CONH2)}-VNQHLCGSHLVEALYLVCGERGFHYTPK([AEEA-AEEA-γGlu-C20 diacid]) / II: Hydantoyl-IVEQCCTSICSLEQLENYCN (disulfide I:6-II:6, I:18-II:19, II:5-II:10) [Example 15, A1(N^αCarbamoyl), A14E, B1(N^αCarbamoyl), B25H, B29K(N^εeicosanedioyl-gGlu-2xOEG), desB30 human insulin] | – | – | – | – | 0.02 | 0.2 | – | 0.6 | – | – | – | – |
| I: {Phe(Nα-CONH2)}-VNQHLCGSHLVEALYLVCGERGFHYPK([AEEA-AEEA-γGlu-C20 diacid]) / II: Hydantoyl-IVEQCCTSICSLEQLENYCN (disulfide I:6-II:6, I:18-II:19, II:5-II:10) [Example 28, A1G(N^αcarbamoyl), A14E, B1F(N^αcarbamoyl), B25H, desB27, B29K(N^εeicosanedioyl-gGlu-2xOEG), desB30 human insulin] | – | – | – | – | 0.25 | 0.7 | – | 2.1 | – | – | – | – |
